{"source": "paper PMC9166630", "about": "“SAR Probing of KX2-391 Provided Analogues With Juxtaposed Activity Profile Against Major Oncogenic Kinases” (Frontiers in Oncology, 2022)", "key": {"EphA3": {"molecular_target": "T1, EphA3 (Homo sapiens, UniProt P29320)", "T1 construct": "endogenous in cells; host or cells: HL60 lysate", "T1 sequence (P29320 21-983)": "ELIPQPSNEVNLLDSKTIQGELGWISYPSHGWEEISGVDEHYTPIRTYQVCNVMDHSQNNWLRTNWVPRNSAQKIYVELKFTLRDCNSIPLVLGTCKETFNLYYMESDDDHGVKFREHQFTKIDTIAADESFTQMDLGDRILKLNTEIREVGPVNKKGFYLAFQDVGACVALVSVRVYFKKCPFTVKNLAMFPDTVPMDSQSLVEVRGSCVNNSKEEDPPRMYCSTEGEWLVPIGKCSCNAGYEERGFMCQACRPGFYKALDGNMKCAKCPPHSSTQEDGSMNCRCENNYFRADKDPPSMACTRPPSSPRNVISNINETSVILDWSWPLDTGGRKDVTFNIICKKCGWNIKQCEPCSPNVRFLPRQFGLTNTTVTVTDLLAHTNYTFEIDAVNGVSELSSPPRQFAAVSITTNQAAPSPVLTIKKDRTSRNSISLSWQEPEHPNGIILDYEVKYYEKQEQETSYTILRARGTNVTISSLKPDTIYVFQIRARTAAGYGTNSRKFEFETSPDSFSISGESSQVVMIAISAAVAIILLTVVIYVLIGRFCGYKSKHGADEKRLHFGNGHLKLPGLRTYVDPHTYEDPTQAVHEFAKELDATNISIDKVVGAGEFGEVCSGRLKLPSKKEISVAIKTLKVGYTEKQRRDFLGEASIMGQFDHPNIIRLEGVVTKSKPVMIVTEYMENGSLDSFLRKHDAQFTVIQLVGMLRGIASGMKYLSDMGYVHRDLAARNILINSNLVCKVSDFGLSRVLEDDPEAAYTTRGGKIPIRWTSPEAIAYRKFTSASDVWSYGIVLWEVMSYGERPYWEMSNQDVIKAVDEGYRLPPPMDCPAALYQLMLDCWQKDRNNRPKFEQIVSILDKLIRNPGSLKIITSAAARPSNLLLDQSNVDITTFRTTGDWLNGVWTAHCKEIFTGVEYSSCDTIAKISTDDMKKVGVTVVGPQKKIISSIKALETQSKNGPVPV", "experiment": "PamChip tyrosine kinase microarray, EphA3", "format": "biochemical", "conditions": "4e 0.1 µM, HL60 lysate", "experimental": "(§1) The changes in kinase activities induced by treatment with 4e were monitored within the HL60 cell lines using PamGene’s (Hertogenbosch, Netherlands) PamChip® peptide microarray profiler, which quantifies the activities of 144 tyrosine kinases (YK) ([29], [30]) (Figure 7). Results are provided as a log fold change (LFC) heatmap and Mean Kinase Statistic. From the LFC it is apparent that compound 4e, at a concentration of 0.1 µM, induced sizable changes to the activity of several kinases within the cell signaling YK profile (Figure 7A).\n(§2) An Upstream Kinase tool was used to generate a putative list of kinases responsible for phosphorylating the phospho-sites on the PamChip (Figure 7B) ([31]). It is an interpretation and is highly dependent on the contents of the underlying phosphorylation databases. A Kinase Score was used for ranking kinases based on their significance and specificity in terms of the set of peptides used for the corresponding kinase. Kinase Statistics indicates the overall change of the peptide set that represents the kinase. Kinase statistics value <0 indicates lower kinase activity in the compound spiked lysate and vice versa ([32], [33]). Table 5 lists the 20 most changed kinases within treated HL60 cell lysates by 0.1 μM 4e, ranked according to their Kinase Score.\n(§3) The compound 4e was spiked into HL60 cell lysate at different concentrations (0.001, 0.01, 0.1, 1, 10 and 50 μM). In addition, DMSO was also spiked in HL60 lysate at low concentration (2% v/v) as control. Samples were profiled on PamGene’s Tyrosine Kinase (PTK) arrays in technical replicates, covering a total of 196 phosphorylation sites. Frozen HL60 cultured cell pellet was sent to PamGene. At PamGene, cells were lysed using a lysis buffer and proteases inhibitors cocktail. Protein concentration was measured using standard Bradford assay as per PamGene SOPs. These lysates were further used for generating the PTK activity profiles. For spiking, 4e was received as powder form and dissolved in DMSO at PamGene facility followed by storing at -20°C in small aliquots. PamGene used its in-house bioinformatics toolbox in combination with other methods to generate hypotheses of signaling pathways."}, "EphA2": {"molecular_target": "T2, EphA2 (Homo sapiens, UniProt P29317)", "T2 construct": "endogenous in cells; host or cells: HL60 lysate", "T2 sequence (P29317 24-976)": "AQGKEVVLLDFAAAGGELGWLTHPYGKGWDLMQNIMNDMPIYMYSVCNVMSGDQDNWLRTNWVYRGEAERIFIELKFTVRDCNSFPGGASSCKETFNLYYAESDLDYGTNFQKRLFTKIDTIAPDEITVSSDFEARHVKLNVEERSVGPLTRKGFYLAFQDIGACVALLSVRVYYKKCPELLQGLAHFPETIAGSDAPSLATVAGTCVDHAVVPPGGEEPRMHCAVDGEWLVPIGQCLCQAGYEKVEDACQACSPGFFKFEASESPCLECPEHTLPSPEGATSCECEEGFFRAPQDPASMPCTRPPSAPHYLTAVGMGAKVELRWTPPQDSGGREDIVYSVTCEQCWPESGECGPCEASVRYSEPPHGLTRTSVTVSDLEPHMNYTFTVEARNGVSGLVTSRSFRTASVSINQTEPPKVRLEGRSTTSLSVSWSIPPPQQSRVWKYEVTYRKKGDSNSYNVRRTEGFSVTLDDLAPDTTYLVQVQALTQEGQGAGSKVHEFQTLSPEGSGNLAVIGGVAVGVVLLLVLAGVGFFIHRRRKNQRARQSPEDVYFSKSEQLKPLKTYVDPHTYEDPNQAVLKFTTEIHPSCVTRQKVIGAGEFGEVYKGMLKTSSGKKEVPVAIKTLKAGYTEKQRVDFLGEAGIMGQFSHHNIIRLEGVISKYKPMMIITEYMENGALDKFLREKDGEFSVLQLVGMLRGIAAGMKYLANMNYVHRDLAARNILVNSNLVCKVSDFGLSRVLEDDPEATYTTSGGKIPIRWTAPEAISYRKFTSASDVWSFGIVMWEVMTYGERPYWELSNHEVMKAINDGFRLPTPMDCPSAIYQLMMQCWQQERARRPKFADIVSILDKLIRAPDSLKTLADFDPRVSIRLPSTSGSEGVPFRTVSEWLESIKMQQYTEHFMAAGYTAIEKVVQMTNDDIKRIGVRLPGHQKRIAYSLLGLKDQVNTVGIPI", "experiment": "PamChip tyrosine kinase microarray, EphA2", "format": "biochemical", "conditions": "4e 0.1 µM, HL60 lysate", "experimental": "as §1, §2, §3"}, "CREB": {"system": "CREB", "experiment": "Human phosphokinase array, CREB", "format": "cell-based", "source_text": "(§4) The kinome tree representation (Figure 7C), which was generated by raising the Kinase Score cut-off to >1.2, confirmed that, unlike tirbanibulin and our prototype molecule KX1-136, 4e’s effects were more observable on kinases other than the Src family such as the Eph and TEC families. […] Therefore, we screened compound 4e using the Human Phospho-Kinase Array® kit from R&D systems (Minneapolis, MN, USA). In this system, 35 phosphorylated YK and serine-threonine kinase (STK) enzymes in the untreated (control) and treated (test) HL60 cell lysates were captured on nitrocellulose membrane, pre-spotted with phosphokinase-specific capture antibodies, and then visualized by detection antibody cocktails (Figure 8). The difference in the spot intensity between untreated (control) and treated cells is proportional to change in the amount of the phosphorylated protein induced by 4e.\n(§5) The phosphorylation profile of 48 kinases was performed using the Proteome Profiler Human Phospho-Kinase Antibody Array Kit by R&D Systems (Minneapolis, MN, USA) according to the protocol. Briefly, the total cellular protein was extracted using the Lysis buffer and was quantified using Bio-Rad DC Protein Assay kit (Hercules, CA, USA). Nitrocellulose membrane set (A&B), pre-spotted with kinase-specific capture antibodies, were first blocked with Array Buffer-1 at RT for 30 min on a rocking platform shaker. Approximately 600 µg of protein concentrate was diluted in the buffer provided and was added onto the membrane set, and the membranes were incubated overnight at 4°C in an 8-well plate. Subsequently, membranes were washed with Wash Buffer and incubated with appropriate Detection Antibody cocktails for 2 h at RT. Streptavadin-HRP (1:2000) was added onto membranes and incubated for 30 min at RT. Membranes were washed, and Chemiluminescent Detection Reagents 1&2 were applied in equal volumes for detection. The signals were detected on C-DiGit®Blot Scanner (LI-COR, Odyssey Imaging Systems, Lincoln, Nebraska, USA) using Image Studio 5.0 software."}, "HSP27": {"system": "HSP27", "experiment": "Human phosphokinase array, HSP27", "format": "cell-based", "source_text": "as §4, §5"}, "CTK": {"system": "CTK", "experiment": "PamChip tyrosine kinase microarray, CTK", "format": "biochemical, human", "conditions": "4e 0.1 µM, HL60 lysate", "experimental": "as §1, §2, §3"}}, "note": "“And” between values parts separate entries of the source, which are not always exact repeats. Identical values can stand only once."}
{"smiles": "O=C(Cc1ccc(NC(=O)c2cccc(Cl)c2)cc1)NCc1ccccc1", "note": "[Compound 4e, N-(4-(2-(benzylamino)-2-oxoethyl)phenyl)-3-chlorobenzamide]", "values": [{"measurement": "Mean Final Score", "setting": "EphA3", "result": 1.9564}, {"measurement": "Mean Kinase Statistic", "setting": "EphA3", "result": -0.6074}, {"measurement": "Mean Significance Score", "setting": "EphA3", "result": 1.4547}, {"measurement": "Mean Specificity Score", "setting": "EphA3", "result": 0.5017}, {"measurement": "Mean Final Score", "setting": "EphA2", "result": 2.4004}, {"measurement": "Mean Kinase Statistic", "setting": "EphA2", "result": -0.7066}, {"measurement": "Mean Significance Score", "setting": "EphA2", "result": 1.5807}, {"measurement": "Mean Specificity Score", "setting": "EphA2", "result": 0.8197}, {"measurement": "phosphokinase signal after 4e exposure, CREB", "setting": "CREB; HL60 cell lysate, treated", "result": 682.43}, {"measurement": "Change in Signal, CREB", "setting": "CREB; treated vs untreated HL60", "result": 42.08}, {"measurement": "% Change, CREB", "setting": "CREB; treated vs untreated HL60, Ser133", "result": "6.57% and ~ 6%"}, {"measurement": "decrease of Hsp27 Ser78 and Ser82 phosphorylation", "setting": "HSP27; HL60, versus control", "result": 92.3, "unit": "%"}, {"measurement": "phosphokinase signal after 4e exposure, HSP27", "setting": "HSP27; HL60 cell lysate, treated", "result": 3.71}, {"measurement": "% Change, HSP27", "setting": "HSP27; treated vs untreated HL60", "result": -92.31, "unit": "%"}, {"measurement": "Change in Signal, HSP27", "setting": "HSP27; treated vs untreated HL60", "result": -44.51}, {"measurement": "Mean Final Score", "setting": "CTK", "result": 1.5802}, {"measurement": "Mean Kinase Statistic", "setting": "CTK", "result": -0.4874}, {"measurement": "Mean Significance Score", "setting": "CTK", "result": 1.1881}, {"measurement": "Mean Specificity Score", "setting": "CTK", "result": 0.3920}]}
